The assay relates to HaCaT cells. The assay is described as follows: Apoptosis assay (FITC Annexin V/PI) after ultraviolet irradiation. It is filed as cell-based, human. Conditions: 2 h pretreatment, ultraviolet 50 mJ/cm^2, 48 hours, mean ± SEM. The procedure: Four groups of NMuMG cells (i.e., a normal control group referred to as Normal Control Group 1-A, an ultraviolet control group referred to as UV Control Group 1-A, and two experimental groups referred to as Experimental Groups 1-A to 2-A) and four groups of HaCaT cells (i.e., a normal control group referred to as Normal Control Group 1-B, an ultraviolet control group referred to as UV Control Group 1-B, and two experimental groups referred to as Experimental Groups 1-B to 2-B), were prepared based on the procedure set forth in “Source and cultivation of cell lines” of “Experimental materials”. The cells in each group were cultivated using 5 mL of a corresponding medium shown in Table 1 and a 6-cm Petri dish in an incubator (37° C., 5% CO2) for 24 hours. […]
Subsequently, the stained cells were analyzed using BD Accuri™ C6 flow cytometry, in which cells that could be stained with FITC Annexin V but not with PI (i.e., FITC Annexin V positive and PI negative) represented cells that were induced with early apoptosis; cells stained with both FITC Annexin V and PI (i.e., FITC Annexin V positive and PI positive) represented cells that were induced with late apoptosis; and cells that could not be stained with FITC Annexin V and PI (i.e., FITC Annexin V negative and PI negative) represented viable cells. […]

As for `COc1cc(-c2oc3cc(O)cc(O)c3c(=O)c2O[C@@H]2O[C@H](CO)[C@@H](O)[C@H](O)[C@H]2O)ccc1O` [isorhamnetin-3-O-β-D-glucoside], the Apoptosis percentage by setting is: (50 μM) 26.13 ± 7.26 %; (100 μM) 23 ± 2.19 %.

These data come from patent publication US9821002B2, “Method for alleviating radiation injury with isorhamnetin-3-O-β-D-glucoside” (Sinotai Oncology Associate., Ltd., priority 2015, dated 2017).
